The subject of assay [1] is IL-2 secretion from T cells in human whole blood. It counts as cell-based.
For assay [2], the system named is IFN-g secretion from T cells in human whole blood. Format: cell-based.
Where [3] appears, read: read-out: WB (IL-2) IC50 (nM, Avg).
Setting [4] is: read-out: WB (IFNg) IC50 (nM, Avg).

Like-named read-outs stand apart in the source and are kept apart here.

A word on the IC50: it is the concentration that gives 50% inhibition.

Take `CC[C@H](C)[C@@H]1NC(=O)[C@@H](NC(=O)[C@H](CO)NC(=O)[C@@H](N)CCCNC(=N)N)CSSC[C@@H](C(=O)O)NC(=O)[C@H]([C@@H](C)O)NC(=O)CNC(=O)[C@@H]2CSSC[C@@H]3NC(=O)[C@H](CCC(N)=O)NC(=O)[C@H](Cc4ccccc4)NC(=O)[C@H](C)NC(=O)[C@H]([C@@H](C)O)NC(=O)[C@H](CSSC[C@H](NC(=O)[C@H](Cc4ccccc4)NC(=O)[C@H](CO)NC(=O)[C@H](CC(C)C)NC(=O)[C@H](CCCNC(=N)N)NC(=O)[C@H](Cc4ccc(O)cc4)NC(=O)[C@H](CCCCN)NC(=O)[C@H](CCSC)NC(=O)[C@H](CO)NC(=O)[C@H](Cc4c[nH]cn4)NC(=O)[C@H](CCCCN)NC3=O)C(=O)N[C@@H](CCCNC(=N)N)C(=O)N[C@@H](CCCCN)C(=O)N[C@@H]([C@@H](C)O)C(=O)N2)NC(=O)[C@H](CCCNC(=N)N)NC(=O)[C@H](CO)NC(=O)[C@H](CCCCN)NC(=O)[C@@H]2CCCN2C(=O)[C@H]([C@@H](C)CC)NC(=O)[C@H]([C@@H](C)O)NC(=O)[C@H](CC(=O)O)NC1=O` [ShK(1-35), reference compound]: the IC50 is 0.067 nM in assay [1] (read-out: WB (IL-2) IC50), 0.043 nM in assay [1] (setting [3]), 0.078 nM in assay [2] (read-out: WB (IFNg) IC50) and 0.052 nM in assay [2] (setting [4]).

`CC[C@H](C)[C@@H]1NC(=O)[C@@H](NC(=O)[C@H](CO)NC(=O)[C@@H](N)CCCNC(=N)N)CSSC[C@@H](C(=O)O)NC(=O)[C@H]([C@@H](C)O)NC(=O)CNC(=O)[C@@H]2CSSC[C@@H]3NC(=O)[C@H](CCC(N)=O)NC(=O)[C@H](Cc4ccccc4)NC(=O)[C@H](C)NC(=O)[C@H](Cc4cccc5ccccc45)NC(=O)[C@H](CSSC[C@H](NC(=O)[C@H](Cc4ccccc4)NC(=O)[C@H](CO)NC(=O)[C@H](CC(C)C)NC(=O)[C@H](CCCNC(=N)N)NC(=O)[C@H](Cc4ccc(O)cc4)NC(=O)[C@H](CCCCN)NC(=O)[C@H](CCSC)NC(=O)[C@H](CO)NC(=O)[C@H](Cc4c[nH]cn4)NC(=O)[C@H](CCCCN)NC3=O)C(=O)N[C@@H](CCCNC(=N)N)C(=O)N[C@@H](CCCCN)C(=O)N[C@@H]([C@@H](C)O)C(=O)N2)NC(=O)[C@H](CCCNC(=N)N)NC(=O)[C@H](CO)NC(=O)[C@H](CCCCN)NC(=O)[C@@H]2CCCN2C(=O)[C@H]([C@@H](C)CC)NC(=O)[C@H]([C@@H](C)O)NC(=O)[C@H](CC(=O)O)NC1=O` [[1-Nal13]ShK]: the IC50 in assay [1] (setting [3]) is 3.56 nM; in assay [2] (setting [4]), 4.86 nM.

As to `CC[C@H](C)[C@@H]1NC(=O)[C@@H](NC(=O)[C@H](CO)NC(=O)[C@@H](N)CCCNC(=N)N)CSSC[C@@H](C(=O)O)NC(=O)[C@H]([C@@H](C)O)NC(=O)CNC(=O)[C@@H]2CSSC[C@@H]3NC(=O)[C@H](CCC(N)=O)NC(=O)[C@H](Cc4ccccc4)NC(=O)[C@H](C)NC(=O)[C@H]([C@@H](C)O)NC(=O)[C@H](CSSC[C@H](NC(=O)[C@H](Cc4ccccc4)NC(=O)[C@H](CO)NC(=O)[C@H](CC(C)C)NC(=O)[C@H](CCCNC(=N)N)NC(=O)[C@H](Cc4ccc(O)cc4)NC(=O)[C@H](CCCCN)NC(=O)[C@H](CCSC)NC(=O)[C@H](CO)NC(=O)[C@H](Cc4c[nH]cn4)NC(=O)[C@H](CCCCN)NC3=O)C(=O)N[C@@H](CCCNC(=N)N)C(=O)N[C@@H](Cc3cccc4ccccc34)C(=O)N[C@@H]([C@@H](C)O)C(=O)N2)NC(=O)[C@H](CCCNC(=N)N)NC(=O)[C@H](CO)NC(=O)[C@H](CCCCN)NC(=O)[C@@H]2CCCN2C(=O)[C@H]([C@@H](C)CC)NC(=O)[C@H]([C@@H](C)O)NC(=O)[C@H](CC(=O)O)NC1=O` [[1-Nal30]ShK], the IC50 came out at 0.082 nM in assay [1] (setting [3]) and 0.148 nM in assay [2] (setting [4]).

In the case of `CC[C@H](C)[C@@H]1NC(=O)[C@@H](NC(=O)[C@H](CO)NC(=O)[C@@H](N)CCCNC(=N)N)CSSC[C@@H](C(=O)O)NC(=O)[C@H]([C@@H](C)O)NC(=O)CNC(=O)[C@@H]2CSSC[C@@H]3NC(=O)[C@H](CCC(N)=O)NC(=O)[C@H](Cc4ccccc4)NC(=O)[C@H](C)NC(=O)[C@H]([C@@H](C)O)NC(=O)[C@H](CSSC[C@H](NC(=O)[C@H](Cc4ccccc4)NC(=O)[C@H](CO)NC(=O)[C@H](CC(C)C)NC(=O)[C@H](CCCNC(=N)N)NC(=O)[C@H](Cc4ccc(O)cc4)NC(=O)[C@H](CCCCN)NC(=O)[C@H](CCSC)NC(=O)[C@H](CO)NC(=O)[C@H](Cc4c[nH]cn4)NC(=O)[C@H](CCCCN)NC3=O)C(=O)N[C@@H](CCCNC(=N)N)C(=O)N[C@@H](CCCCN)C(=O)N[C@@H]([C@@H](C)O)C(=O)N2)NC(=O)[C@H](C)NC(=O)[C@H](CO)NC(=O)[C@H](CCCCN)NC(=O)[C@@H]2CCCN2C(=O)[C@H]([C@@H](C)CC)NC(=O)[C@H]([C@@H](C)O)NC(=O)[C@H](CC(=O)O)NC1=O` [[Ala11]ShK], the results for the IC50 in assay [1] (setting [3]) and in assay [2] (setting [4]) were 1.24 nM and 1.9 nM, respectively.

Consider `CC[C@H](C)[C@@H]1NC(=O)[C@@H](NC(=O)[C@H](CO)NC(=O)[C@@H](N)CCCNC(=N)N)CSSC[C@@H](C(=O)O)NC(=O)[C@H]([C@@H](C)O)NC(=O)CNC(=O)[C@@H]2CSSC[C@@H]3NC(=O)[C@H](CCC(N)=O)NC(=O)[C@H](Cc4ccccc4)NC(=O)[C@H](C)NC(=O)[C@H](C)NC(=O)[C@H](CSSC[C@H](NC(=O)[C@H](Cc4ccccc4)NC(=O)[C@H](CO)NC(=O)[C@H](CC(C)C)NC(=O)[C@H](CCCNC(=N)N)NC(=O)[C@H](Cc4ccc(O)cc4)NC(=O)[C@H](CCCCN)NC(=O)[C@H](CCSC)NC(=O)[C@H](CO)NC(=O)[C@H](Cc4c[nH]cn4)NC(=O)[C@H](CCCCN)NC3=O)C(=O)N[C@@H](CCCNC(=N)N)C(=O)N[C@@H](CCCCN)C(=O)N[C@@H]([C@@H](C)O)C(=O)N2)NC(=O)[C@H](CCCNC(=N)N)NC(=O)[C@H](CO)NC(=O)[C@H](CCCCN)NC(=O)[C@@H]2CCCN2C(=O)[C@H]([C@@H](C)CC)NC(=O)[C@H]([C@@H](C)O)NC(=O)[C@H](CC(=O)O)NC1=O` [[Ala13]ShK], for which the concentration for half-maximal inhibition (IC50) in assay [1] (setting [3]) came out at 0.582 nM; in assay [2] (setting [4]), 0.954 nM.

With `CC[C@H](C)[C@@H]1NC(=O)[C@@H](NC(=O)[C@H](CO)NC(=O)[C@@H](N)CCCNC(=N)N)CSSC[C@@H](C(=O)O)NC(=O)[C@H]([C@@H](C)O)NC(=O)CNC(=O)[C@@H]2CSSC[C@@H]3NC(=O)[C@H](C)NC(=O)[C@H](Cc4ccccc4)NC(=O)[C@H](C)NC(=O)[C@H]([C@@H](C)O)NC(=O)[C@H](CSSC[C@H](NC(=O)[C@H](Cc4ccccc4)NC(=O)[C@H](CO)NC(=O)[C@H](CC(C)C)NC(=O)[C@H](CCCNC(=N)N)NC(=O)[C@H](Cc4ccc(O)cc4)NC(=O)[C@H](CCCCN)NC(=O)[C@H](CCSC)NC(=O)[C@H](CO)NC(=O)[C@H](Cc4c[nH]cn4)NC(=O)[C@H](CCCCN)NC3=O)C(=O)N[C@@H](CCCNC(=N)N)C(=O)N[C@@H](CCCCN)C(=O)N[C@@H]([C@@H](C)O)C(=O)N2)NC(=O)[C@H](CCCNC(=N)N)NC(=O)[C@H](CO)NC(=O)[C@H](CCCCN)NC(=O)[C@@H]2CCCN2C(=O)[C@H]([C@@H](C)CC)NC(=O)[C@H]([C@@H](C)O)NC(=O)[C@H](CC(=O)O)NC1=O` [[Ala16]ShK], the IC50 came to 0.058 nM in assay [1] (setting [3]) and 0.078 nM in assay [2] (setting [4]).

On to `CC[C@H](C)[C@@H]1NC(=O)[C@@H](NC(=O)[C@H](CO)NC(=O)[C@@H](N)CCCNC(=N)N)CSSC[C@@H](C(=O)O)NC(=O)[C@H]([C@@H](C)O)NC(=O)CNC(=O)[C@@H]2CSSC[C@@H]3NC(=O)[C@H](CCC(N)=O)NC(=O)[C@H](Cc4ccccc4)NC(=O)[C@H](C)NC(=O)[C@H]([C@@H](C)O)NC(=O)[C@H](CSSC[C@H](NC(=O)[C@H](Cc4ccccc4)NC(=O)[C@H](CO)NC(=O)[C@H](CC(C)C)NC(=O)[C@H](CCCNC(=N)N)NC(=O)[C@H](Cc4ccc(O)cc4)NC(=O)[C@H](CCCCN)NC(=O)[C@H](CCSC)NC(=O)[C@H](CO)NC(=O)[C@H](Cc4c[nH]cn4)NC(=O)[C@H](CCCCN)NC3=O)C(=O)N[C@@H](CCCNC(=N)N)C(=O)N[C@@H](CCCCN)C(=O)N[C@@H]([C@@H](C)O)C(=O)N2)NC(=O)[C@H](CCCCN)NC(=O)[C@H](CO)NC(=O)[C@H](CCCCN)NC(=O)[C@@H]2CCCN2C(=O)[C@H]([C@@H](C)CC)NC(=O)[C@H]([C@@H](C)O)NC(=O)[C@H](CC(=O)O)NC1=O` [[Lys11]ShK], for which the IC50 in assay [1] (setting [3]) worked out at 0.095 nM.

For `CC[C@H](C)[C@@H]1NC(=O)[C@@H](NC(=O)[C@H](CO)NC(=O)[C@@H](N)CCCNC(=N)N)CSSC[C@@H](C(N)=O)NC(=O)[C@H]([C@@H](C)O)NC(=O)CNC(=O)[C@@H]2CSSC[C@@H]3NC(=O)[C@H](CCCCN)NC(=O)[C@H](Cc4ccccc4)NC(=O)[C@H](C)NC(=O)[C@H]([C@@H](C)O)NC(=O)[C@H](CSSC[C@H](NC(=O)[C@H](Cc4ccccc4)NC(=O)[C@H](CO)NC(=O)[C@H](CC(C)C)NC(=O)[C@H](CCCNC(=N)N)NC(=O)[C@H](Cc4ccc(O)cc4)NC(=O)[C@H](CCCCN)NC(=O)[C@H](CCSC)NC(=O)[C@H](CO)NC(=O)[C@H](Cc4c[nH]cn4)NC(=O)[C@H](CCCCN)NC3=O)C(=O)N[C@@H](CCCNC(=N)N)C(=O)N[C@@H](CCCCN)C(=O)N[C@@H]([C@@H](C)O)C(=O)N2)NC(=O)[C@H](CCCNC(=N)N)NC(=O)[C@H](CO)NC(=O)[C@H](CCCCN)NC(=O)[C@@H]2CCCN2C(=O)[C@H]([C@@H](C)CC)NC(=O)[C@H]([C@@H](C)O)NC(=O)[C@H](CC(=O)O)NC1=O` [[Lys16]ShK-amide], the half-inhibitory concentration (IC50) in assay [1] (read-out: WB (IL-2) IC50) came to 0.1 nM.

For `CC[C@H](C)[C@@H]1NC(=O)[C@@H](NC(=O)[C@H](CO)NC(=O)[C@@H](N)CCCNC(=N)N)CSSC[C@@H](C(=O)O)NC(=O)[C@H]([C@@H](C)O)NC(=O)CNC(=O)[C@@H]2CSSC[C@@H]3NC(=O)[C@H](CCC(N)=O)NC(=O)[C@H](Cc4ccccc4)NC(=O)[C@H](C)NC(=O)[C@H]([C@@H](C)O)NC(=O)[C@H](CSSC[C@H](NC(=O)[C@H](Cc4ccccc4)NC(=O)[C@H](CO)NC(=O)[C@H](CC(C)C)NC(=O)[C@H](CCCCN)NC(=O)[C@H](Cc4ccc(O)cc4)NC(=O)[C@H](CCCCN)NC(=O)[C@H](CCSC)NC(=O)[C@H](CO)NC(=O)[C@H](Cc4c[nH]cn4)NC(=O)[C@H](CCCCN)NC3=O)C(=O)N[C@@H](CCCNC(=N)N)C(=O)N[C@@H](CCCCN)C(=O)N[C@@H]([C@@H](C)O)C(=O)N2)NC(=O)[C@H](CCCNC(=N)N)NC(=O)[C@H](CO)NC(=O)[C@H](CCCCN)NC(=O)[C@@H]2CCCN2C(=O)[C@H]([C@@H](C)CC)NC(=O)[C@H]([C@@H](C)O)NC(=O)[C@H](CC(=O)O)NC1=O` [[Lys24]ShK], the IC50 in assay [1] (setting [3]) came to 0.044 nM.

As to “Fc.L20FcLoopShk (scFc): single-chain Fc with ShK inserted in the second Fc domain, 20-residue linker”, the 50% inhibitory concentration (IC50) in assay [1] (read-out: In Vitro IC50, whole blood assay (inhibition of IL-2), average results) is 2.01 nM.

Source of the values: patent publication US20120121591A1 (priority 2009, published 2012).
